Experimental data published in patent US10487078B2, “Compositions and methods of targeting mutant K-RAS” (NantBio, Inc., priority 2015, dated 2019).
Where two headings read alike, the source gives them in different places.

Columns and labels:
K-ras G12D = K-ras G12D (Homo sapiens, UniProt P01116, G12D); test: G-LISA Ras activation assay, 293H cells transfected with G12D mutant; type: cell-based; details: 1 hour treatment
Procedure: (§1) 293H cells were seeded in 6-wells at 0.6×10^6 cells per well and transfected next day with 5 μg of Ras wild-type, or G12C, G12D or G12V mutant DNA plasmid vector using transfection reagent Lipofectamine 3000. Next day cells were treated with 3.125-50 μM of Ras compounds for 1 hour. Wild-type transfected cells were subsequently treated with 100 ng/ml EGF for 2 minutes. Cells were washed once in ice-cold PBS, lysed in complete lysis buffer on ice, and processed by G-LISA according to Cytoskeleton protocol.
(§2) In-cell selectivity of the compounds presented herein against a specific K-ras mutant form can also be tested as shown in the following exemplary experiment. 293H cells were seeded in 6-wells and transfected next day with 5 μg of Ras wild-type, or G12C, G12D or G12V mutant DNA plasmid vector. Next day cells were treated with 3.125-50 μM of Ras compounds for 1 hour. Wild-type transfected cells were subsequently treated with 100 ng/ml EGF for 2 minutes. Cells were washed once in ice-cold PBS, lysed in complete lysis buffer on ice, and processed by G-LISA according to Cytoskeleton protocol. FIG. 1 depicts exemplary results.
as §1, with “In still further experiments, the inventors tested selected compounds in a G-LISA assay to compare IC50 values for wild-type and various mutant K-Ras (G12D, G12V) using the following general protocol: 293H” for “293H”

K-ras G12V (GTP) = K-ras G12V (GTP) (Homo sapiens, UniProt P01116, G12V); test: SPR assay (surface plasmon resonance); type: binding; details: 25° C., 8% DMSO
Procedure: Selected compounds were also tested for selective binding to wild type and mutant forms of K-ras in the active and non-active state using surface plasmon resonance, and exemplary results are shown in Table 4.
The running buffer in all surface plasmon resonance experiments was 10 mM HEPES pH 7.4, 150 mM NaCl, 0.1% (v/v) Tween-20, 1 mM MgCl2, 8% DMSO. Experiments were carried out on the SensiQ Pioneer optical biosensor. The flow rate was set at 50 μL/min and the temperature was 25° C. kRAS protein was immobilized to the Nickel-NTA charged surface of the SensiQ HisCap chip (sensiqtech.com) giving a yield of 4000 RU. Small molecules were prepared in 100% DMSO and further diluted to 8% DMSO in running buffer. The small molecules were injected using the Taylor diffusion gradient injection mode (OneStep®, see e.g., Evaluation of Taylor dispersion injections: Determining kinetic/affinity interaction constants and diffusion coefficients in label-free biosensing, John G. Quinn, Analytical Biochemistry (2011)). Buffer blanks were injected for double referencing purposes. Data processing and model fitting were performed using Qdat.

K-Ras wild-type = K-Ras wild-type (Homo sapiens, UniProt P01116); test: G-LISA Ras activation assay, 293H cells transfected with Ras wild-type, EGF-stimulated; type: cell-based; details: 1 hour treatment, 100 ng/ml EGF
Procedure: as §1, §2
as §1, with “In still further experiments, the inventors tested selected compounds in a G-LISA assay to compare IC50 values for wild-type and various mutant K-Ras (G12D, G12V) using the following general protocol: 293H” for “293H”

K-ras G12V = K-ras G12V (Homo sapiens, UniProt P01116, G12V); test: G-LISA Ras activation assay, 293H cells transfected with G12V mutant; type: cell-based; details: 1 hour treatment
Procedure: as §1, §2
as §1, with “In still further experiments, the inventors tested selected compounds in a G-LISA assay to compare IC50 values for wild-type and various mutant K-Ras (G12D, G12V) using the following general protocol: 293H” for “293H”

[1] = Table 1, G-LISA, 293H transfected, read-out: IC50 (μM) G12D
[2] = Table 5, IC50, 293H transfected, read-out: G-LISA (G12D)

Row | SMILES | IC50 (K-ras G12D; [1]) [µM] | IC50 (K-ras G12D; [2]) [µM] | SPR Assay G12V (GTP) Kd (K-ras G12V (GTP)) | IC50 (K-Ras wild-type; Table 1, G-LISA, 293H transfected, read-out: IC50 (μM) Wild-type) [µM] | IC50 (K-Ras wild-type; Table 5, IC50, 293H transfected, read-out: G-LISA (wild type)) [µM] | IC50 (K-ras G12V; Table 1, G-LISA, 293H transfected, read-out: IC50 (μM) G12V) [µM] | IC50 (K-ras G12V; Table 5, IC50, 293H transfected, read-out: G-LISA (G12V)) [µM] | Kd (K-ras G12V (GTP)) [µM] | SPR Assay G12V (GTP) Rmax (K-ras G12V (GTP))
1 | Cc1nc(C)c(C(=O)Nc2nc(-c3ccc4c(c3)CCC(=O)N4)cs2)s1 [Compound 4662] | > 25 | > 25 | – | – | – | – | – | – | –
2 | CC(=O)Nc1ccc(-c2csc(NC(=O)c3sc(C)nc3C)n2)cc1 [Compound 4663] | 15 | > 25 | No binding/fit | 7 | 7 | 32 | 32 | – | –
3 | Cc1nc(C)c(C(=O)Nc2nc(-c3ccc(NC(=O)c4ccccc4)cc3)cs2)s1 [Compound 4665] | > 25 | > 25 | – | – | – | – | – | – | –
4 | O=C1CCc2cc(-c3csc(NC(=O)c4cnc(C5CC5)s4)n3)ccc2N1 [Compound 4683] | 12 | 11.9 | – | – | – | – | – | – | –
5 | O=C1CCc2cc(-c3csc(NC(=O)c4cnc(-c5ccccc5)s4)n3)ccc2N1 [Compound 4684] | > 25 | > 25 | – | – | – | – | – | – | –
6 | N#Cc1ncc(C(=O)Nc2nc(-c3ccc4c(c3)CCC(=O)N4)cs2)s1 [Compound 4685] | > 25 | > 25 | – | – | – | – | – | – | –
7 | CC(=O)N1CCCc2cc(-c3csc(NC(=O)c4sc(C)nc4C)n3)ccc21 [Compound 4686] | 11 | 11 | – | – | – | – | – | 11.4 | Rmax = 94.2 ± 0.2
8 | Cc1nc(C)c(C(=O)Nc2nc(-c3ccc4c(c3)CCC(=O)N4C)cs2)s1 [Compound 4687] | 19 | 19 | – | – | – | – | – | 6.6 | Rmax = 72.6 ± 0.1
9 | O=C1CCc2cc(-c3csc(NC(=O)c4scnc4C4CC4)n3)ccc2N1 [Compound 4735] | > 25 | > 25 | – | – | – | – | – | 43 | Rmax = 203 ± 3
10 | CCc1ncsc1C(=O)Nc1nc(-c2ccc3c(c2)CCC(=O)N3)cs1 [Compound 4747] | > 25 | > 25 | – | – | – | – | – | 10.1 | Rmax = 85.3 ± 0.1
11 | Cc1nc(C)c(C(=O)Nc2nc(-c3ccc4c(c3)CNC(=O)N4)cs2)s1 [Compound 4748] | 21 | 21 | – | – | – | – | – | – | –
12 | Cc1nc(C)c(C(=O)Nc2nc(-c3cc4c5c(c3)CCN5C(=O)CC4)cs2)s1 [Compound 4749] | > 25 | 36 | – | – | – | – | – | 6.08 | Rmax = 75.9 ± 0.1
